From patent publication US20050032873A1, “3-Amino chroman and 2-amino tetralin derivatives” (Wyeth, priority 2003, published 2005)
Where two headings read alike, the source gives them in different places.

Tests used:
[1] = biological target: T1, serotonin transporter (Rattus norvegicus, UniProt P31652); test: 5-HT transporter affinity: displacement of 3H-paroxetine from male rat cortical membranes; type: binding; settings: displacement of 3H-paroxetine; male rat cortical membranes; read-out: 5-HT Transporter Affinity Ki
T1 construct: displace ^3H-paroxetine from male rat cortical membranes; from tissue; host or cells: male rat cortical membranes

[2] = biological target: T2, cloned human 5-HT1A receptors (Homo sapiens, UniProt P08908); test: 35S-GTPγS binding assay, 5-HT1A function; type: biochemical; settings: for IC50: antagonist potency, reversal of 8-OH-DPAT, read-out: 5-HT1A Function GTPγS IC50; for EC50: agonist potency
T2 construct: expressed in transfected cells
T2 sequence (P08908 1-422): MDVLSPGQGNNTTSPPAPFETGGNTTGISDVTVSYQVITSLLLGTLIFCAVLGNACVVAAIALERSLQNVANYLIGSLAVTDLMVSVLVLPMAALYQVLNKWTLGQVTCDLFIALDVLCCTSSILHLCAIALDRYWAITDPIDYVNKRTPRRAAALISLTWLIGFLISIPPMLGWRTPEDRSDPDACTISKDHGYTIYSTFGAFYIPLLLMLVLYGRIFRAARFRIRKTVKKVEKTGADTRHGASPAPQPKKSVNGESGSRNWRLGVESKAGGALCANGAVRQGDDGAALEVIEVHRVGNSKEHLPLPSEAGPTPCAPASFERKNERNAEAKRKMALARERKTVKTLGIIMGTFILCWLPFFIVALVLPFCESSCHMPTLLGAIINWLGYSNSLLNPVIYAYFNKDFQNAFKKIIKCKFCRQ

[3] = biological target: T3, 5-HT1A receptor (Homo sapiens, UniProt P08908); test: cAMP accumulation assay, 5-HT1A function; type: cell-based; settings: for IC50: cells marked IC50 (antagonist), read-out: 5-HT1A Function cAMP IC50; for Emax: in brackets after EC50 or IC50, read-out: 5-HT1A Function cAMP (Emax); for EC50: cells marked EC50 (agonist)
T3 sequence (P08908 1-422): T2 sequence (P08908 1-422)

[4] = biological target: T3, 5-HT1A receptor; test: 5-HT1A receptor affinity: displacement of [3H] 8-OH-DPAT; type: binding; design: expressed in transfected cells; settings: displacement of [3H] 8-OH-DPAT; CHO cells stably transfected with human 5-HT1A receptors; read-out: 5-HT1A Receptor Affinity Ki
[5] = maximum inhibitory effect, in brackets after IC50, read-out: 5-HT1A Function GTPγS (Imax)
[6] = maximum stimulatory effect, in brackets after EC50, read-out: 5-HT1A Function GTPγS (Emax)

T1 sequence (P31652 whole entry): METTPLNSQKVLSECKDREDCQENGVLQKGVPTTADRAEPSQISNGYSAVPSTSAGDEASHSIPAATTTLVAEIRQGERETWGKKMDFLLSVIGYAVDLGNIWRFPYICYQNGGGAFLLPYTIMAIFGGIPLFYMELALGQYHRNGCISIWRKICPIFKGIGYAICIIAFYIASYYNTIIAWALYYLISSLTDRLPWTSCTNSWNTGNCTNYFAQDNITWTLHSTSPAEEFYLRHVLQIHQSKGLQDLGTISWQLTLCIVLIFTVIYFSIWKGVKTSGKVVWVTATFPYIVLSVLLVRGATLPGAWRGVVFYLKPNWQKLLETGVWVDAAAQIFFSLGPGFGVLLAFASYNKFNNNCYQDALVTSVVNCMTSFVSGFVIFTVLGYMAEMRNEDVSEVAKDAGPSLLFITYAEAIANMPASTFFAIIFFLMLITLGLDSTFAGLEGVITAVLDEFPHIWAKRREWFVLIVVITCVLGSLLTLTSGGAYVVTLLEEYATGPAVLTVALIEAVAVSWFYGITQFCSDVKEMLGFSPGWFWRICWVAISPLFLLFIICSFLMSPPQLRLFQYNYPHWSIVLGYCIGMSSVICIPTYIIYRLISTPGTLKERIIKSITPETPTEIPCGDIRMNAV

Ki [1] [nM] | IC50 [2] [nM] | Emax [2, 5] [%] | IC50 [3] [nM] | Emax [3] [%] | Ki [4] [nM] | EC50 [2] [nM] | Emax [2, 6] [%] | EC50 [3] [nM] | Compound
61 | 241 | 100 | 56.8 | 0 | 0.74 | – | – | – | NC(=O)c1ccc(F)c2c1CC(N(CCCc1c[nH]c3c(Cl)cccc13)CC1CC1)CO2 (stereo not shown) [Compound 112, 3-[[3-(7-chloro-1H-indol-3-yl)propyl](cyclopropylmethyl)amino]-8-fluorochromane-5-carboxamide]
51 | – | – | – | 91 | 2.02 | 87.2 | 56 | 16 | CCCN(CCCc1c[nH]c2c(Cl)cccc12)C1COc2c(F)ccc(C(N)=O)c2C1 (stereo not shown) [Compound 113, 3-[[3-(7-chloro-1H-indol-3-yl)propyl](propyl)amino]-8-fluorochromane-5-carboxamide]
69.5 | – | – | – | 67.5 | 97 | 1320 | 64 | 244 | NC(=O)c1ccc(F)c2c1CC(NCCCc1c[nH]c3ccc(Cl)cc13)CO2 (stereo not shown) [Compound 114, 3-{[3-(5-chloro-1H-indol-3-yl)propyl]amino}-8-fluorochromane-5-carboxamide]
21.4 | 1990 | 72 | – | 77 | 6.04 | 52.2 | 38 | 46 | CCN(CCCc1c[nH]c2ccc(Cl)cc12)C1COc2c(F)ccc(C(N)=O)c2C1 (stereo not shown) [Compound 115, 3-[[3-(5-chloro-1H-indol-3-yl)propyl](ethyl)amino]-8-fluorochromane-5-carboxamide]
151 | 843 | 45 | – | 80 | 1.45 | 61.2 | 50 | 7.82 | CCCN(CCCc1c[nH]c2ccc(Cl)cc12)C1COc2c(F)ccc(C(N)=O)c2C1 (stereo not shown) [Compound 116, 3-[[3-(5-chloro-1H-indol-3-yl)propyl](propyl)amino]-8-fluorochromane-5-carboxamide]
41.4 | 134 | 69 | 168 | 0 | 1.49 | – | – | – | NC(=O)c1ccc(F)c2c1CC(N(CCCc1c[nH]c3ccc(Cl)cc13)CC1CC1)CO2 (stereo not shown) [Compound 118, 3-[[3-(5-chloro-1H-indol-3-yl)propyl](cyclopropylmethyl)amino]-8-fluorochromane-5-carboxamide]
6.8 | – | – | – | 64 | 86.5 | 2800 | 63 | 367 | NC(=O)c1ccc(F)c2c1OCC(N(CCCCc1c[nH]c3ccc(F)cc13)CC1CC1)C2 (stereo not shown) [Compound 125, 3-{(cyclopropylmethyl)[4-(5-fluoro-1H-indol-3-yl)butyl]amino}-5-fluorochromane-8-carboxamide]
9.9 | – | – | – | 81.5 | 326 | 1290 | 50 | 781 | CCN(CCCCc1c[nH]c2ccc(F)cc12)C1COc2c(C(N)=O)ccc(F)c2C1 (stereo not shown) [Compound 127, 3-{ethyl[4-(5-fluoro-1H-indol-3-yl)butyl]amino}-5-fluorochromane-8-carboxamide]
6.8 | – | – | – | 75.5 | 170 | 9330 | 100 | 707 | CCCN(CCCc1c[nH]c2c(F)cc(F)cc12)C1COc2c(C(N)=O)ccc(F)c2C1 (stereo not shown) [Compound 129, 3-[[3-(5,7-difluoro-1H-indol-3-yl)propyl](propyl)amino]-5-fluorochromane-8-carboxamide]
166 | – | – | – | 72 | 74.3 | 788 | 39 | 14.8 | NC(=O)c1ccc(F)c2c1OCC(N(CCCc1c[nH]c3c(F)cc(F)cc13)CC1CC1)C2 (stereo not shown) [Compound 130, 3-{(cyclopropylmethyl)[3-(5,7-difluoro-1H-indol-3-yl)propyl]amino}-5-fluorochromane-8-carboxamide]
50.3 | – | – | – | 63 | 95.6 | 2210 | 98 | 112 | CCN(CCCc1c[nH]c2c(F)cc(F)cc12)C1COc2c(C(N)=O)ccc(F)c2C1 (stereo not shown) [Compound 132, 3-[[3-(5,7-difluoro-1H-indol-3-yl)propyl](ethyl)amino]-5-fluorochromane-8-carboxamide]
28.5 | – | – | – | 53 | 51.8 | 5000 | 60 | 128 | NC(=O)c1cccc2c1C[C@H](NCCCc1c[nH]c3ccc(F)cc13)CO2 [Compound 133a, (3S)-3-{[3-(5-fluoro-1H-indol-3-yl)propyl]amino}chromane-5-carboxamide]
58 | – | – | – | 98 | 19.9 | 441 | 100 | 274 | COC(=O)c1cccc2c1CC(NCCCc1c[nH]c3c(F)cc(F)cc13)CO2 (stereo not shown) [Compound 135, Methyl 3-{[3-(5,7-difluoro-1H-indol-3-yl)propyl]amino}chromane-5-carboxylate]
203 | – | – | – | 89 | 27.6 | 1330 | 95 | 635 | COC(=O)c1cccc2c1CC(N(CCCc1c[nH]c3c(F)cc(F)cc13)C1CCC1)CO2 (stereo not shown) [Compound 136, Methyl 3-{cyclobutyl[3-(5,7-difluoro-1H-indol-3-yl)propyl]amino}chromane-5-carboxylate]
4.4 | – | – | – | 91 | 31.9 | 1390 | 100 | 523 | O=C(NC1CCC1)c1cccc2c1CC(N(CCCc1c[nH]c3c(F)cc(F)cc13)C1CCC1)CO2 (stereo not shown) [Compound 143, N-cyclobutyl-3-{cyclobutyl[3-(5,7-difluoro-1H-indol-3-yl)propyl]amino}chromane-5-carboxamide]
5.5 | – | – | – | 100 | 169 | 7600 | 73 | 4990 | O=C(NCC1CC1)c1cccc2c1CC(N(CCCc1c[nH]c3c(F)cc(F)cc13)C1CCC1)CO2 (stereo not shown) [Compound 144, 3-{cyclobutyl[3-(5,7-difluoro-1H-indol-3-yl)propyl]amino}-N-(cyclopropylmethyl)chromane-5-carboxamide]
16.1 | 5470 | 100 | 668 | 0 | 288 | – | – | – | CNC(=O)c1ccc(F)c2c1C[C@H](N(CCCCc1c[nH]c3ccc(F)cc13)C1CCC1)CO2 [Compound 145a, (3S)-3-{cyclobutyl[4-(5-fluoro-1H-indol-3-yl)butyl]amino}-8-fluoro-N-methylchromane-5-carboxamide]
8.63 | 1270 | 100 | 848 | 0 | 6.29 | – | – | – | CNC(=O)c1ccc(F)c2c1C[C@@H](N(CCCCc1c[nH]c3ccc(F)cc13)C1CCC1)CO2 [Compound 145b, (3R)-3-{cyclobutyl[4-(5-fluoro-1H-indol-3-yl)butyl]amino}-8-fluoro-N-methylchromane-5-carboxamide]
3.25 | – | – | – | 100 | 0.33 | 8.04 | 81 | 0.54 | NC(=O)c1cccc2c1CC(N(CCCc1c[nH]c3ccc(F)cc13)CC1CC1)CO2 (stereo not shown) [Compound 148, 3-{(cyclopropylmethyl)[3-(5-fluoro-1H-indol-3-yl)propyl]amino}chromane-5-carboxamide]
9.25 | – | – | – | 70 | 2.72 | 44.9 | 79 | 3.65 | CCN(CCCc1c[nH]c2ccc(F)cc12)C1COc2cccc(C(N)=O)c2C1 (stereo not shown) [Compound 149, 3-{ethyl[3-(5-fluoro-1H-indol-3-yl)propyl]amino}chromane-5-carboxamide]

Compound | Ki [1] [nM] | IC50 [2] [nM] | Emax [2, 5] [%] | IC50 [3] [nM] | Emax [3] [%] | Ki [4] [nM] | EC50 [2] [nM] | Emax [2, 6] [%] | EC50 [3] [nM]
NC(=O)c1ccc(F)c2c1CC(N(CCCc1c[nH]c3ccc(Cl)cc13)C1CCC1)CO2 (stereo not shown) [Compound 117, 3-[[3-(5-chloro-1H-indol-3-yl)propyl](cyclobutyl)amino]-8-fluorochromane-5-carboxamide] | 75.5 | 735 | 100 | 272 | 0 | 3.98 | – | – | –
CCCN(CCCc1c[nH]c2ccc(F)cc12)C1COc2cccc(C(N)=O)c2C1 (stereo not shown) [Compound 150, 3-[[3-(5-fluoro-1H-indol-3-yl)propyl](propyl)amino]chromane-5-carboxamide] | 18.6 | – | – | – | 100 | 0.93 | 13 | 74 | 1.23
